Test [1] deals with Cholinesterase (Homo sapiens, UniProt P06276).
Description: Inhibitory concentration against human plasma Butyrylcholinesterase
The target of test [2] is Acetylcholinesterase (Homo sapiens, UniProt P22303).
Description: Inhibitory concentration against human erythrocyte Acetylcholinesterase
For test [3], the system named is SK-N-SH. Kind of test: Reduction in Amyloid-beta precursor protein levels in Human SK-N-SH cells at 10 uM. It counts as functional.

In ChEMBL document CHEMBL1142685, “Novel anticholinesterases based on the molecular skeletons of furobenzofuran and methanobenzodioxepine” (J Med Chem, 2005) one finds IC50 and Reduction data, which are given here for 13 compounds.

As usually defined, the IC50 is the concentration that inhibits the measured activity by half. A high value points to weaker potency in that assay.

Chain of Acetylcholinesterase (P22303 whole entry): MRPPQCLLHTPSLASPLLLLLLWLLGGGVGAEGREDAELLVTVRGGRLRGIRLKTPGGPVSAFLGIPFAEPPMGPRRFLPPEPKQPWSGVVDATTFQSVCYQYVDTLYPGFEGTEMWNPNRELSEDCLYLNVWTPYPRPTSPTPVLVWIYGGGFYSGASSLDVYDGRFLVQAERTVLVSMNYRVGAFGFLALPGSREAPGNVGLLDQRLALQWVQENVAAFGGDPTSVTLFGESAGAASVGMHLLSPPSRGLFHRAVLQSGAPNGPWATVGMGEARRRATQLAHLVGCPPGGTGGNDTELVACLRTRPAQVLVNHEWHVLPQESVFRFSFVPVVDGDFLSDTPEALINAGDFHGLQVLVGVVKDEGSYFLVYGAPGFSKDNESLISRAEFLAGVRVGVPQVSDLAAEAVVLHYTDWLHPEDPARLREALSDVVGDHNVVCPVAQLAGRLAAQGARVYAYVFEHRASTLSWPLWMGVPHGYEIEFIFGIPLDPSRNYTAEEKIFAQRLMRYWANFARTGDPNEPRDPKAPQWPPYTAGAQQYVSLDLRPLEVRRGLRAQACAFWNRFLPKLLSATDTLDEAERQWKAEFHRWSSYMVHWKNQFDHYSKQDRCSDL
Chain of Cholinesterase (P06276 whole entry): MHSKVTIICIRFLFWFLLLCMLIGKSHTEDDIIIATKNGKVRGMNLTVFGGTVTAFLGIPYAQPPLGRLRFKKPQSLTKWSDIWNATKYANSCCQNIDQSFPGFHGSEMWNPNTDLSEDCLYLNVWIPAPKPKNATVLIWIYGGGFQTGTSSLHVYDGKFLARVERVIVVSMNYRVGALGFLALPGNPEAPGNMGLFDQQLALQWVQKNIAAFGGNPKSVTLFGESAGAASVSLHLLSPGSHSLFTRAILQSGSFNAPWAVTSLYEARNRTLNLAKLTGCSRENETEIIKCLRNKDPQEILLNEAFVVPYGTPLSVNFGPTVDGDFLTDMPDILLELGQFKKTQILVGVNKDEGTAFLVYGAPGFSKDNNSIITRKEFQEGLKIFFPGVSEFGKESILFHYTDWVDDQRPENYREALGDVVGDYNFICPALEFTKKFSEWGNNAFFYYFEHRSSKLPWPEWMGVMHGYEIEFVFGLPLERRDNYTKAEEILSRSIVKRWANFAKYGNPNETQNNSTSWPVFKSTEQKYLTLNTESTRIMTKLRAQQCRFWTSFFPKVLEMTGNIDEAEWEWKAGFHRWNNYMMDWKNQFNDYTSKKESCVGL

As for `Cc1ccccc1NC(=O)Oc1ccc2c(c1)[C@]1(C)CCOC1N2C` (some centres not stated), the values for the IC50 in test [1] and in test [2] were 1560 nM and 13 nM, respectively.

Regarding `CCc1ccccc1NC(=O)Oc1ccc2c(c1)[C@]1(C)CC[N+](C)([O-])[C@@H]1N2C` (some centres not stated), the values for the IC50 in test [1] and in test [2] were 1700 nM and 125 nM, respectively.

`CN1CC[C@@]2(C)c3cc(OC(=O)Nc4ccccc4)ccc3N(C)[C@@H]12` [PHENSERINE]: in test [3], the Reduction stood at 50%.

Consider `CCNC(=O)Oc1ccc2c(c1)[C@]1(C)CCN(C)C1N2C` (some centres not stated), for which the results for the IC50 in test [1] and in test [2] were 4 nM and 94 nM, respectively.

`Cc1ccccc1NC(=O)Oc1ccc2c(c1)C1(C)CCOC1O2` (configuration not stated): the IC50 in test [1] is greater than 30000 nM.

Turning to `CC(C)c1ccc(NC(=O)Oc2ccc3c(c2)[C@]2(C)CCOC2N3C)cc1` (some centres not stated), the results for the IC50 in test [1] and in test [2] were 17 nM and 3860 nM, respectively.

In turn, `CC(C)c1ccc(NC(=O)Oc2ccc3c(c2)C2(C)CCOC2O3)cc1` (configuration not stated) had a half-inhibitory concentration (IC50) in test [1] of 27 nM.

As to `CNC(=O)Oc1ccc2c(c1)[C@]1(C)CCOC1N2C` (some centres not stated), the figures for the IC50 in test [1] and in test [2] were 4 nM and 27 nM, respectively.

Regarding `CCNC(=O)Oc1ccc2c(c1)C1(C)CCOC1O2` (configuration not stated), the results for the IC50 in test [1] and in test [2] were 6 nM and 360 nM, respectively.

Turning to `CC(C)c1ccc(NC(=O)Oc2ccc3c(c2)C2(C)COC(C2)O3)cc1` (configuration not stated), the IC50 in test [1] was determined as 22 nM; in test [2], 4300 nM.

With `Cc1ccccc1NC(=O)Oc1ccc2c(c1)C1(C)COC(C1)O2` (configuration not stated), the IC50 in test [1] is greater than 30000 nM; in test [2] it was 56 nM.

In the case of `CCNC(=O)Oc1ccc2c(c1)[C@]1(C)CCOC1N2C` (some centres not stated), the IC50 was 2 nM in test [1] and 82 nM in test [2].

Turning to `CCNC(=O)Oc1ccc2c(c1)C1(C)COC(C1)O2` (configuration not stated), the IC50 in test [1] turned out to be 24 nM.
